Experimental data published in US20140243403A1, “TREATING COLORECTAL, PANCREATIC, AND LUNG CANCER” (The General Hospital Corporation, priority 2011, published 2014).

Tests used:
[1] = tested on: non-small cell lung cancer (NSCLC) cells; assay: Sensitivity of KRAS mutant NSCLC cell lines; format: cell-based; details: 4 NSCLC cell lines, APC wild-type
Protocol: (B) 5Z-7-oxozeaenol IC50 values for KRAS mutant PDAC and NSCLC cell lines.
To determine if sensitivity to TAK1 inhibition is specific to colon cancer-derived cell lines, sensitivity to 5Z-7-oxozeaenol was assessed in 5 KRAS mutant pancreatic ductal adenocarcinoma (PDAC) and 4 non-small cell lung cancer (NSCLC) cells, all of which are APC wild-type (FIG. 9B).

[2] = tested on: HT29 cells expressing mutant KRAS (G12V) 4A or 4B; assay: Sensitivity of HT29 cells expressing mutant KRAS (G12V); format: cell-based, human; details: HT29 cells expressing 4A or 4B splice isoform of mutant KRAS (G12V)
Source text: (D) Forced overexpression of epitope-tagged oncogenic G12V mutated RAS protein isoforms in HT29 cells and sensitivity to TAK1 pharmacological inhibition with 5Z-7-oxozeaenol. Expression levels of exogenous and endogenous Ras proteins are shown by immunoblotting with a pan-ras monoclonal antibody. NRAS/KRAS4B are HA-tagged and KRAS4A is V5-tagged.
These cell lines are insensitive to 5Z-7-oxozeaenol.

[3] = tested on: Wnt target gene Axin 2; assay: Axin 2 protein expression, western blot; format: cell-based, human
Protocol: (C) Protein expression levels of the Wnt target gene Axin 2 following treatment of cells with the indicated concentrations. GAPDH serves as a loading control.
In contrast, KRAS depletion had no effect in one KRAS-independent line (SW1463) and increased TOP-FLASH activity in another (LS174T). […] To define the effect of TAK1 signaling on a physiological Wnt target gene, protein expression levels of the endogenous Axin 2 gene (Lustig et al., 2002) were measured following treatment with 5Z-7-oxozeaenol. […] Thus, both KRAS and TAK1 suppression selectively suppress β-catenin-mediated transcription and Wnt target gene expression in KRAS-dependent cells.
The following antibodies were used for western blotting in the above examples: KRAS OP-24, Pan-Ras OP-40 (Calbiochem); PARP (BD Pharmigen, 4C10-5); BMP-7 (Abcam); phospho-ERK, Axin2, phospho Smad1 and total Smad1/5/8, phospho- and total AMPK, phospho- and total AKT, cleaved Caspase-3 (Cell Signaling); GAPDH (Chemicon); E-Cadherin, beta-catenin (BD Pharmigen) Syk, TAK1, total ERK1 (Santa Cruz). For secreted BMP-7 levels, 1×10^6 HT29 cells stably expressing ER-KRAS(12V) were plated in 10 cm dishes. 24 h post-plating, 10 ml serum-free DME/F12 medium (Gibco) was added. Conditioned media was collected 24 h post-induction of ER-KRAS(12V) with 4-HT and concentrated to […], using AMICON® Ultra-4 Centrifugal Filter Units with 3 kDa membranes. […]

[4] = tested on: KRAS-independent colon cancer cells; assay: Apoptosis by PARP and caspase-3 cleavage; format: cell-based, human; details: except at very high doses
Protocol: (B) Effects of TAK1 inhibition on apoptosis and signaling in a representative panel of KRAS-independent and KRAS-dependent cell lines, 24 h after treatment. PARP and caspase-3 cleavage are shown as indicators of apoptosis, and AMPK threonine 172 (T172) phosphorylation is shown as a downstream indicator of TAK1 signaling activity. GAPDH serves as a gel loading control.
Pharmacologic TAK1 inhibition triggered apoptosis in KRAS-dependent colon cancer cells, as measured by PARP and caspase-3 cleavage (FIG. 3B). […] Thus, low concentrations of 5Z-7-oxozeaenol, in the range of 0.625 to 1.25 μM, promote apoptosis selectively in KRAS-dependent colon cancer cells.

[5] = tested on: HT29 cells expressing BMPR1A-CA (Q233D); assay: Sensitivity of HT29 cells expressing BMPR1A-CA; format: cell-based, human
Protocol: (E) Introduction of a V5-tagged constitutively activated (CA) mutant of the BMP receptor, BMPR1A (Q233D) or control vector in HT29 cells and effects on 5Z-7-oxozeaenol sensitivity in terms of IC50 values.
To determine whether TAK1-independent cells could be driven toward TAK1 dependency by enhanced KRAS/Wnt signaling, a series of reconstitution experiments was performed. HT29, SW620 or SKCO1 cells were infected with recombinant lentiviruses encoding either BMPR1A-CA and CTNNB1-CA or vector control (containing the ccDB gene). For BMPR1A-CA stable expression, cells were selected in 5 μg/mlBlasticidin for 7 days and pooled clones were established. Stable expression was verified using the V5 epitope tag on the BMPR1A transgene product. For CTNNB1-CA, the pWPI recombinant lentiviruses encode GFP driven by IRES. Thus, stable cell clones were obtaining by FACS live cell sorting to obtain the top 10% of GFP expressing cells. The SW620-CTNNB1-CA stable cell clones were passaged 1:5 every 2 days and assayed for KRAS dependency after the fifth passage.
To further define the role of BMP signaling in TAK1 dependency, a constitutively-activated (CA) variant (Q233D) of BMPR1A (Zou et al., 1997) was ectopically expressed in HT29 cells. […] This was accompanied by dose-dependent decreases in Axin 2 and phosphorylated Smad2 levels. […]

## COc1cc(O)c2c(c1)/C=C/C[C@H](O)[C@H](O)C(=O)/C=C\C[C@H](C)OC2=O [5Z-7-oxozeaenol]
[1]
  sensitivity to 5Z-7-oxozeaenol: largely refractory
[2]
  reduction in the IC50 for 5Z-7-oxozeaenol: 3 fold
[3]; KRAS-dependent cells
  Axin 2 expression: dose-dependent reduction
[3]; KRAS-independent cells
  Axin 2 expression, dose-dependent reduction: not
[4]
  caspase-3 or PARP cleavage: little or no
[5]
  IC50: 1100 nM
